From ChEMBL document CHEMBL5120887, “Hybrid Diterpenic Meroterpenoids from an Endophytic Penicillium sp. Induced by Chemical Epigenetic Manipulation” (J Nat Prod, 2022)

Target: Acetylcholinesterase (Homo sapiens, UniProt P22303)
Experiment: Inhibition of AChE in human Erythrocyte incubated for 20 mins by Ellman reagent based spectrophotometry
Assay type: cell-based

Sequence of Acetylcholinesterase (P22303 whole entry): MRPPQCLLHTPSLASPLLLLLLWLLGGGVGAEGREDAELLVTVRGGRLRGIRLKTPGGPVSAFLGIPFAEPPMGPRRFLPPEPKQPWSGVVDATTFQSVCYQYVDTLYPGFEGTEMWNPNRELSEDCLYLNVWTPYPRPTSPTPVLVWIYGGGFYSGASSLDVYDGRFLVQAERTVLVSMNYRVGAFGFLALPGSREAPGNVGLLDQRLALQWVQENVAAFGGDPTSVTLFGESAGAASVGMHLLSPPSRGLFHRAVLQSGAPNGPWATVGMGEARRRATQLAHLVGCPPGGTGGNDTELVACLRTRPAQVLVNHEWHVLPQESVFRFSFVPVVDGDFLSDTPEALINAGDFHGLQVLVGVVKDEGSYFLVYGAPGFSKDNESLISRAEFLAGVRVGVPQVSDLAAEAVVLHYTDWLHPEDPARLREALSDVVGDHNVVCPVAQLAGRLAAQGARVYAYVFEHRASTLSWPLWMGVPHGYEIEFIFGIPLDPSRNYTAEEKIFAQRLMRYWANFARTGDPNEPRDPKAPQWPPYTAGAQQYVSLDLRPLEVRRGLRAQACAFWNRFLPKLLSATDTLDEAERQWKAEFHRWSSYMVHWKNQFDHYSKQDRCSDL

C=C(C)[C@]1(O)CC[C@@]2(C)C3=Cc4c(cc(-c5cccnc5)oc4=O)O[C@]3(C)[C@@H](O)C[C@@H]2[C@@]12CCC(=O)OC2
IC50: 13.9 µM
